Values after ≈ are worked out from the molar mass of the structure shown.
What was measured:
S. aureus ATCC 13709 = test: In vitro antibacterial susceptibility (MIC, broth microdilution); assay type: cell-based; settings: for MIC against S. aureus ATCC 13709, CAMHB: cation-adjusted Mueller-Hinton broth, 37° C., 18 h; for Antibacterial activity compared with oritavancin 5: deduced from the MIC data of Table 2
Method: Susceptibility of S. aureus strain ATCC13709 to oritavancin (5) and synthesized compounds was determined following the guidelines set by the Clinical and Laboratory Standards Institute (formerly the National Committee for Clinical Laboratory Standards) (M26-A). Compounds were serially diluted two-fold in either DMSO (Oritavancin 5) or in PBS and transferred to cation-adjusted Mueller Hinton broth (CAMHB; Becton Dickinson). 50 μL of compounds diluted in CAMHB was mixed with 100 μL of bacteria diluted in CAMHB in 96-well microtiter plates. The final number of micro-organisms in the assay was 5×10^5 c.f.u. per mL and the final concentration of DMSO in the assay, if present, was 1.25%. All solutions may contain 0.002% Tween as indicated. Assays were set up in duplicate and incubated at 37° C. for 18 h. The concentration of compound that inhibited visible growth was reported as the minimum inhibitory concentration (MIC).

[1] = Solubility in phosphate buffered saline; assay type: physicochemical; settings: 10 mM phosphate buffered saline (0.138 M NaCl, 2.7 mM KCl), pH 7.4
Method: To a sample of the material of known mass were added known volumes of phosphate buffered saline until complete dissolution is observed. Suspensions were centrifuged for 5 min at 10000 rpm. […] Upon complete dissolution, the solution is diluted until the final concentration is 0.5 mg/mL to ensure that the material remains soluble over the entire range of concentrations.

[2] = system: S. aureus strain ATCC13709; test: Neutropenic mouse thigh infection model; assay type: in vivo, mice; settings: for Recovered bacterial titers per thigh, 1 mg/kg / Recovered bacterial titers per thigh, 10 mg/kg / Recovered bacterial titers per thigh, 40 mg/kg: neutropenic mice, 24 h postinfection; for Recovered bacterial titers per thigh, 1 mg/kg: 1 mg/kg one hour after inoculation; for Recovered bacterial titers per thigh, 10 mg/kg: 10 mg/kg one hour after inoculation; for Recovered bacterial titers per thigh, 40 mg/kg: 40 mg/kg one hour after inoculation
Method: The susceptibility of S. aureus strain ATCC13709 to oritavancin (5) and selected synthesized compounds in vivo was evaluated with the well accepted neutropenic mouse thigh infection model (Craig, W. A. et al. Journal of Antimicrobial Chemotherapy (1991), 27 (Suppl. C):29-40). Mice were made neutropenic by treatment with cyclophosphamide (150 and 100 mg/kg of body weight administered intraperitoneally 4 days and 1 day prior to infection). Mice were anesthetized briefly with approximately 4% isoflurane just prior to inoculation. The bacterial suspension (0.1 mL) was injected intramuscularly into each thigh (approximately 10^5 colony forming units (CFU)/thigh). The selected agents were administered in 10% (w/w) β-hydroxypropylcyclodextrin in water at a concentration of 10 mg/mL one hour following bacterial inoculation. The animals were humanely sacrificed by CO2 asphyxiation 24 h postinfection. The entire thigh muscle mass including the bone was homogenized and diluted in 0.9% saline and aliquots were plated on Brain-Heart Infusion agar. Following overnight incubation at 37° C., bacteria were enumerated for each thigh and expressed as log10 CFU per thigh. This was performed over three independent experiments and oritavancin (5) was used as a comparator in each.

Row | SMILES | MIC against S. aureus ATCC 13709, CAMHB + 0.002% tween (S. aureus ATCC 13709) [µg/mL] | MIC against S. aureus ATCC 13709, CAMHB + 50% human serum (S. aureus ATCC 13709) [µg/mL] | MIC against S. aureus ATCC 13709, CAMHB + 50% mouse serum (S. aureus ATCC 13709) [µg/mL] | MIC against S. aureus ATCC 13709, CAMHB + 50% rat serum (S. aureus ATCC 13709) [µg/mL] | MIC against S. aureus ATCC 13709, CAMHB (S. aureus ATCC 13709) [µg/mL] | Antibacterial activity compared with oritavancin 5 (S. aureus ATCC 13709) | Solubility (mg/mL) PBS [1] | In vivo antibacterial efficacy compared with oritavancin ([2]; deduced from the data of Table 3) | Recovered bacterial titers per thigh, 1 mg/kg [2] [Log10 CFU/thigh] | Recovered bacterial titers per thigh, 10 mg/kg [2] [Log10 CFU/thigh] | Recovered bacterial titers per thigh, 40 mg/kg [2] [Log10 CFU/thigh]
1 | CC(C)CC(C(=O)NC1C(=O)NC(CC(N)=O)C(=O)NC2C(=O)NC3C(=O)NC(C(=O)NC(C(=O)O)c4cc(O)cc(O)c4-c4cc3ccc4O)C(OC3CC(C)(N)C(O)C(C)O3)c3ccc(c(Cl)c3)Oc3cc2cc(c3OC2OC(CO)C(O)C(O)C2OC2CC(C)(NCc3ccc(-c4ccc(Cl)cc4)cc3)C(O)C(C)O2)Oc2ccc(cc2Cl)C1O)N(C)C(=O)CNC(=O)C(N)CCCCN (centres unmarked) [Compound 61] | 0.25 | 0.25 | 1 | 0.5 | 2 (≈ 1.01 µM) | within an order of magnitude of that of oritavancin 5 | <0.5 mg/mL | – | – | – | –
2 | CNC(CC(C)C)C(=O)NC1C(=O)NC(CC(N)=O)C(=O)NC2C(=O)NC3C(=O)NC(C(=O)NC(C(=O)OCC(=O)NCCCNCCCN)c4cc(O)cc(O)c4-c4cc3ccc4O)C(OC3CC(C)(N)C(O)C(C)O3)c3ccc(c(Cl)c3)Oc3cc2cc(c3OC2OC(CO)C(O)C(O)C2OC2CC(C)(NCc3ccc(-c4ccc(Cl)cc4)cc3)C(O)C(C)O2)Oc2ccc(cc2Cl)C1O (centres unmarked) [Compound 66] | 0.25 | 0.125 | 1 | 0.125 | 2 (≈ 1.02 µM) | within an order of magnitude of that of oritavancin 5 | >100 mg/mL | within the same order of magnitude than oritavancin itself | 8.16 ± 0.49 | 3.96 ± 1.74 | 4.04 ± 0.51
3 | CC(C)CC(C(=O)NC1C(=O)NC(CC(N)=O)C(=O)NC2C(=O)NC3C(=O)NC(C(=O)NC(C(=O)O)c4cc(O)cc(O)c4-c4cc3ccc4O)C(OC3CC(C)(N)C(O)C(C)O3)c3ccc(c(Cl)c3)Oc3cc2cc(c3OC2OC(CO)C(O)C(O)C2OC2CC(C)(NCc3ccc(-c4ccc(Cl)cc4)cc3)C(O)C(C)O2)Oc2ccc(cc2Cl)C1O)N(C)C(=O)OCc1ccc(OP(=O)(O)O)cc1 (centres unmarked) [Compound 70] | 1 | 32 | 32 | >32 | 2 (≈ 0.989 µM) | weaker activities | 8 mg/mL (≈ 3950 µM) | – | – | – | –
4 | CC(C)CC(C(=O)NC1C(=O)NC(CC(N)=O)C(=O)NC2C(=O)NC3C(=O)NC(C(=O)NC(C(=O)O)c4cc(O)cc(O)c4-c4cc3ccc4O)C(OC3CC(C)(N)C(O)C(C)O3)c3ccc(c(Cl)c3)Oc3cc2cc(c3OC2OC(CO)C(O)C(O)C2OC2CC(C)(NCc3ccc(-c4ccc(Cl)cc4)cc3)C(O)C(C)O2)Oc2ccc(cc2Cl)C1O)N(C)C(=O)OCOC(=O)CCC(=O)NC(CCC(=O)O)(CCC(=O)O)CCC(=O)O (centres unmarked) [Compound 78] | 1 | 16 | 32 | – | 8 (≈ 3.64 µM) | weaker activities | 4 mg/mL (≈ 1820 µM) | – | – | – | –
5 | CC(C)CC(C(=O)NC1C(=O)NC(CC(N)=O)C(=O)NC2C(=O)NC3C(=O)NC(C(=O)NC(C(=O)O)c4cc(O)cc(O)c4-c4cc3ccc4O)C(OC3CC(C)(N)C(O)C(C)O3)c3ccc(c(Cl)c3)Oc3cc2cc(c3OC2OC(CO)C(O)C(O)C2OC2CC(C)(NCc3ccc(-c4ccc(Cl)cc4)cc3)C(O)C(C)O2)Oc2ccc(cc2Cl)C1O)N(C)C(=O)OCOC(=O)CCP(=O)(O)O (centres unmarked) [Compound 84] | 0.125 | 0.5 | 2 | – | 1 (≈ 0.499 µM) | within an order of magnitude of that of oritavancin 5 | 0.5 to 1 mg/mL | – | – | – | –
6 | CNC(CC(C)C)C(=O)NC1C(=O)NC(CC(N)=O)C(=O)NC2C(=O)NC3C(=O)NC(C(=O)NC(C(=O)OCC(=O)NCCN)c4cc(O)cc(O)c4-c4cc3ccc4O)C(OC3CC(C)(N)C(O)C(C)O3)c3ccc(c(Cl)c3)Oc3cc2cc(c3OC2OC(CO)C(O)C(O)C2OC2CC(C)(NCc3ccc(-c4ccc(Cl)cc4)cc3)C(O)C(C)O2)Oc2ccc(cc2Cl)C1O (centres unmarked) [Compound 90a] | 0.5 | 0.25 | 0.5 | – | 1 (≈ 0.528 µM) | within an order of magnitude of that of oritavancin 5 | ≧100 mg/mL | – | 8.38 ± 0.23 | 6.13 ± 2.53 | 5.27 ± 2.66
7 | CNC(CC(C)C)C(=O)NC1C(=O)NC(CC(N)=O)C(=O)NC2C(=O)NC3C(=O)NC(C(=O)NC(C(=O)OCC(=O)NCCCN)c4cc(O)cc(O)c4-c4cc3ccc4O)C(OC3CC(C)(N)C(O)C(C)O3)c3ccc(c(Cl)c3)Oc3cc2cc(c3OC2OC(CO)C(O)C(O)C2OC2CC(C)(NCc3ccc(-c4ccc(Cl)cc4)cc3)C(O)C(C)O2)Oc2ccc(cc2Cl)C1O (centres unmarked) [Compound 90b] | 0.5 | 0.25 | 0.5 | – | 1 (≈ 0.524 µM) | within an order of magnitude of that of oritavancin 5 | ≧100 mg/mL | – | 8.61 ± 0.16 | 6.44 ± 1.82 | 2.97 ± 2.35
8 | CNC(CC(C)C)C(=O)NC1C(=O)NC(CC(N)=O)C(=O)NC2C(=O)NC3C(=O)NC(C(=O)NC(C(=O)OCC(=O)NCCCCN)c4cc(O)cc(O)c4-c4cc3ccc4O)C(OC3CC(C)(N)C(O)C(C)O3)c3ccc(c(Cl)c3)Oc3cc2cc(c3OC2OC(CO)C(O)C(O)C2OC2CC(C)(NCc3ccc(-c4ccc(Cl)cc4)cc3)C(O)C(C)O2)Oc2ccc(cc2Cl)C1O (centres unmarked) [Compound 90c] | 0.25 | 0.125 | 0.5 | – | 1 (≈ 0.52 µM) | within an order of magnitude of that of oritavancin 5 | <1.6 mg/mL | – | – | – | –
9 | CNC(CC(C)C)C(=O)NC1C(=O)NC(CC(N)=O)C(=O)NC2C(=O)NC3C(=O)NC(C(=O)NC(C(=O)OCC(=O)N(C)CCN(C)C)c4cc(O)cc(O)c4-c4cc3ccc4O)C(OC3CC(C)(N)C(O)C(C)O3)c3ccc(c(Cl)c3)Oc3cc2cc(c3OC2OC(CO)C(O)C(O)C2OC2CC(C)(NCc3ccc(-c4ccc(Cl)cc4)cc3)C(O)C(C)O2)Oc2ccc(cc2Cl)C1O (centres unmarked) [Compound 103] | 0.25 | 0.25 | 0.5 | 0.125 | 2 (≈ 1.03 µM) | within an order of magnitude of that of oritavancin 5 | ≧100 mg/mL | – | – | – | –

Source: patent US8901072B2, “Glycopeptide and lipoglycopeptide antibiotics with improved solubility” (The Medicines Company, priority 2009, dated 2014)
